Organism: Rattus norvegicus
Assay: Open TG-GATES - Regimen: Single
Assay type: toxicity, organism-based, Sprague-Dawley
Design: regimen Single, gender Male, age 6 weeks
Settings: in vivo, po, 0 mg/kg, route gavage, dose level Control; for APTT / Bas / Eos / Fbg / Hb / Lym / MCH / MCHC / MCV / Mono / Neu / PT / RBC / Ret / WBC: tissue Blood; for KIDNEY_L / KIDNEY_R / KIDNEY_TOTAL: tissue Kidney; for ALT / AST / CRE / DBIL / IP / K / LDH / Na / RALB / TBIL / TC / TG / TP / gamma-GTP / ALP: tissue Plasma

Question: What does the source list for Cc1cnc(NC(=O)C2=C(O)c3ccccc3S(=O)(=O)N2C)s1 [MELOXICAM]?
Answer: TERMINAL_BW (3 h): 226.2 g; APTT (3 h): 17.9 s; Bas (3 h): 0.4%; Eos (3 h): 1%; Fbg (3 h): 222.8 mg/dL; Hb (3 h): 13.4 g/dL; Lym (3 h): 78.6%; MCH (3 h): 21.2 pg; MCHC (3 h): 34.1%; MCV (3 h): 62.3 fL; Mono (3 h): 2%; Neu (3 h): 17.6%; PT (3 h): 11.8 s; RBC (3 h): 633.2 x10_4/ul; Ret (3 h): 7%; WBC (3 h): 78.8 x10_2/uL; KIDNEY_L (3 h): 1 g; KIDNEY_R (3 h): 1 g; KIDNEY_TOTAL (3 h): 2 g; ALT (3 h): 37.6 IU/L; AST (3 h): 68 IU/L; CRE (3 h): 0.4 mg/dL; DBIL (3 h): 0.06 mg/dL; IP (3 h): 9.3 mg/dL; K (3 h): 3.7 meq/L; LDH (3 h): 149.4 IU/L; Na (3 h): 141.4 meq/L; RALB (3 h): 3.4 g/dL; TBIL (3 h): 0.1 mg/dL; TC (3 h): 79.6 mg/dL; TG (3 h): 61.6 mg/dL; TP (3 h): 5.4 g/dL; gamma-GTP (3 h): 1 IU/L; TERMINAL_BW (6 h): 224.5 g; Bas (6 h): 0.6%; Eos (6 h): 0.6%; Fbg (6 h): 235.8 mg/dL; Lym (6 h): 75.2%; MCH (6 h): 21.8 pg; MCHC (6 h): 33.8%; MCV (6 h): 64.4 fL; Mono (6 h): 3.2%; Neu (6 h): 19.8%; PT (6 h): 12.6 s; RBC (6 h): 625.4 x10_4/ul; Ret (6 h): 7.3%; WBC (6 h): 110.7 x10_2/uL; KIDNEY_L (6 h): 1 g; KIDNEY_R (6 h): 1 g; KIDNEY_TOTAL (6 h): 2 g; ALP (6 h): 739.4 IU/L; ALT (6 h): 31.4 IU/L; AST (6 h): 61.6 IU/L; CRE (6 h): 0.3 mg/dL; DBIL (6 h): 0.066 mg/dL; IP (6 h): 9.5 mg/dL; K (6 h): 3.9 meq/L; LDH (6 h): 153 IU/L; Na (6 h): 141.4 meq/L; RALB (6 h): 3.3 g/dL; TBIL (6 h): 0.1 mg/dL; TC (6 h): 74.8 mg/dL; TG (6 h): 55.2 mg/dL; TP (6 h): 5.4 g/dL; gamma-GTP (6 h): 0.8 IU/L; TERMINAL_BW (9 h): 222.3 g; APTT (9 h): 17.6 s; Bas (9 h): 0.2%; Eos (9 h): 1%; Fbg (9 h): 233.2 mg/dL; Hb (9 h): 13.5 g/dL; Lym (9 h): 72.4%; MCH (9 h): 22.1 pg; MCHC (9 h): 34.1%; MCV (9 h): 64.8 fL; Mono (9 h): 3%; Neu (9 h): 22.4%; PT (9 h): 12.6 s; RBC (9 h): 610.8 x10_4/ul; Ret (9 h): 7.2%; WBC (9 h): 88.3 x10_2/uL; KIDNEY_L (9 h): 1 g; KIDNEY_R (9 h): 1 g; KIDNEY_TOTAL (9 h): 2.1 g; ALP (9 h): 910.8 IU/L; ALT (9 h): 29.6 IU/L; AST (9 h): 62.6 IU/L; CRE (9 h): 0.4 mg/dL; DBIL (9 h): 0.068 mg/dL; IP (9 h): 9.5 mg/dL; K (9 h): 4 meq/L; LDH (9 h): 153.2 IU/L; Na (9 h): 141.6 meq/L; RALB (9 h): 3.4 g/dL; TBIL (9 h): 0.1 mg/dL; TC (9 h): 70.6 mg/dL; TG (9 h): 78.8 mg/dL; TP (9 h): 5.5 g/dL; gamma-GTP (9 h): 1.2 IU/L; TERMINAL_BW (24 h): 238.2 g; Bas (24 h): 0.6%; Eos (24 h): 1.2%; Fbg (24 h): 224.8 mg/dL; Lym (24 h): 78.6%; MCH (24 h): 21.1 pg; MCHC (24 h): 33.9%; MCV (24 h): 62.4 fL; Mono (24 h): 2.6%; Neu (24 h): 16.4%; PT (24 h): 11.7 s; RBC (24 h): 646.8 x10_4/ul; Ret (24 h): 6.4%; KIDNEY_L (24 h): 1 g; KIDNEY_R (24 h): 1 g; KIDNEY_TOTAL (24 h): 2 g; ALP (24 h): 981.2 IU/L; ALT (24 h): 32.6 IU/L; AST (24 h): 62.6 IU/L; CRE (24 h): 0.4 mg/dL; DBIL (24 h): 0.098 mg/dL; IP (24 h): 7.5 mg/dL; K (24 h): 3.9 meq/L; LDH (24 h): 161 IU/L; Na (24 h): 142.4 meq/L; RALB (24 h): 3.4 g/dL; TBIL (24 h): 0.2 mg/dL; TC (24 h): 74.2 mg/dL; TG (24 h): 125.4 mg/dL; TP (24 h): 5.5 g/dL
